Experimental data published in paper PMC6642116, “Structural and functional analyses of hepatitis B virus X protein BH3-like domain and Bcl-xL interaction” (Nature Communications, 2019).

How the values were obtained:
[1] = system: HBV DNA in HepG2.2.15 cells; test: HBV DNA replication in HepG2.2.15 cells treated with ABT-263 or ABT-737; type: cell-based; conditions: for HBV DNA: 2 days; for inhibition of HBV DNA replication (in words): 125-1000 nM, 48 h
Procedure: (§1) Fig. 6 The HBx-aa118–127 peptide, but not ABT-263, inhibits HBV replication and transcription in HepG2.2.15 cells. a HepG2.2.15 cells were treated with 125, 250, 500, and 1000 nM of ABT-263 for 2 days. Cytoplasmic HBV viral particles were isolated and the viral DNA replication intermediates were quantified (Methods). The results represent the fold change of the replicative intermediates in HepG2.2.15 cells from the indicated treatments, compared with those without treatment. b HepG2.2.15 cells were treated with the indicated concentrations of ABT-263 for 2 days. The lysate was analyzed by immunoblotting using antibodies to caspase-3 (CASP3) and GAPDH (glyceraldehyde 3-phosphate dehydrogenase). c, d The HBx-aa113–135, HBx-aa118–127, or the control peptides were delivered into HepG2.2.15 cells using PEP-1 nanoparticles (Methods). The levels of HBV DNA (c) and the levels of HBV S-antigen (HBsAg) expression (d) in culture medium collected from HepG2.2.15 cells were measured (Methods). The results are shown as fold change compared to that of the control peptide. e–g HepG2-NTCP cells were transfected with HBx118–127 peptide with concentration of […], and 50 μg/ml or unrelated control peptide during HBV infection (multiplicity of infection (MOI) = 200), respectively. e HBV e-antigen (HBeAg), f HBV DNA, and g cell viability were measured at day 8 after HBV infection. Data shown represent mean ± SD. Significance is indicated on the top. Not significant (ns): *P < 0.05, **P < 0.01; two-tailed unpaired t tests (n = 3 biologically independent samples). Source data are provided as a Source Data file […]
ABT-263 and ABT-737, the picomolar BH3 mimetics, were purchased from Apexbt Technology LLC (Houston, TX, USA). HepG2.2.15 cells were treated with 125, 250, 500, and 1000 nM of ABT-263 or ABT-737 for 48 h. Cytoplasmic HBV viral particles and HBV DNA were then isolated for quantification.
ABT-263 or ABT-737 for two days. Cytoplasmic HBV viral particles were isolated and the viral DNA replication intermediates were quantified by real-time PCR using a specific primer set targeting HBS ORF (Materials and Methods). The results represent the fold change of the replicative intermediates in HepG2.2.15 cells from the indicated treatments, compared with those without treatment. b HepG2.2.15 cells were treated with the indicated concentrations of ABT-263 or ABT-737 for two days. The lysate was analyzed by immunoblotting using antibodies to Caspase-3 (CASP3) and GAPDH.
Data shown represent mean ± SD. Significance is indicated on the top. Not significant (ns): P > 0.05; two-tailed unpaired t-tests. Source data are provided as a Source Data […]
(1 picture or pasted object on this page, not shown here)

[2] = system: caspase-3 (CASP3); test: Caspase-3 proteolytic activation in HepG2.2.15 cells (immunoblot); type: cell-based; conditions: HepG2.2.15, 2 days
Procedure: as §1, with “infection.” for “infection. Data shown represent mean ± SD. Significance is indicated on the top. Not significant (ns): *P < 0.05, **P < 0.01; two-tailed unpaired t tests (n = 3 biologically independent samples). Source data are provided as a Source Data file”

[3] = system: HBV in HepG2.2.15 cells; test: Combination of HBx118–127 and ABT-263 on HBV in HepG2.2.15 cells; type: cell-based; conditions: ABT-263 1 μM, HBx118–127 via PEP-1; for HBV DNA: HepG2.2.15 culture medium, 48 h in total; for HBV DNA / HBeAg in culture medium / HBsAg in culture medium / Intracellular HBcAg: sequential: ABT-263 12 h then HBx118–127 36 h; for HBeAg in culture medium / HBsAg in culture medium / Intracellular HBcAg: HepG2.2.15, 48 h in total
Procedure: In all panels, from left to right (bars 1–5), cells were treated with placebo buffer, HBx118–127 only, ABT-263 only, HBx118–127 and ABT-263 together, and ABT-263, followed by HBx118–127, respectively. The cells in bars 1–4 were treated for 48 h, whereas the cells in bar 5 were first treated by ABT-263 for 12 h, followed by treatment with HBx118–127 for another 36 h. The final concentration of ABT-263 was 1 μM in the culture medium, while HBx-aa118–127 was delivered by PEP-1 nanoparticles. After 48-h treatment, the protein expression levels of HBV S-antigen (HBsAg) (a) and HBV e-antigen (HBeAg) (b) in the culture medium, the intracellular protein expression level of HBV core antigen (HBcAg) (c), and the HBV viral DNA tilter (d) in the culture medium of HepG2.2.15 cells were measured (Methods). The results are shown as fold changes compared to the values obtained from the cells treated with the placebo buffer. Data shown represent mean ± SD. Significance is indicated on the top. Not significant (ns): *P < 0.05, **P < 0.01, ***P < 0.001; two-tailed unpaired t tests (n = 3 biologically independent samples). Source data are provided as a Source Data file
The levels of HBsAg, HBeAg, and HBcAg expression were measured by chemiluminescence, using Commercial Assay Kit (Wantai, Beijing, China). Northern blot analysis of HBV RNA, Southern blot analysis of HBV DNA, and real-time PCR quantification of HBV DNA are described in the Supplementary Methods.

[4] = target: T1, Bcl-xL (Homo sapiens, UniProt Q07817, DEL27-82); conditions: cited from earlier work
T1 construct: 6xHis-SUMO (N, cleaved yes); made in house; host or cells: Escherichia coli BL21(DE3)
T1 sequence (Q07817 with tags, fused parts or gaps DEL27-82 limits assumed): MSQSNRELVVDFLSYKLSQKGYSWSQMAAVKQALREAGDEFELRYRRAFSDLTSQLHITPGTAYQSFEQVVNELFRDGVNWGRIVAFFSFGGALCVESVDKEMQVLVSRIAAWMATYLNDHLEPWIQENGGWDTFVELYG

CC1(C)CCC(c2ccc(Cl)cc2)=C(CN2CCN(c3ccc(C(=O)NS(=O)(=O)c4ccc(N[C@H](CCN5CCOCC5)CSc5ccccc5)c(S(=O)(=O)C(F)(F)F)c4)cc3)CC2)C1 [ABT-263]
HBV DNA ([1]; 125 nM, replicate 1): 0.966 fold change to non-treatment | HBV DNA ([1]; 125 nM, replicate 2): 1.035 fold change to non-treatment | HBV DNA ([1]; 125 nM, replicate 3): 1.028 fold change to non-treatment | HBV DNA ([1]; 250 nM, replicate 1): 1.021 fold change to non-treatment | HBV DNA ([1]; 250 nM, replicate 2): 0.966 fold change to non-treatment | HBV DNA ([1]; 250 nM, replicate 3): 0.946 fold change to non-treatment | HBV DNA ([1]; 500 nM, replicate 1): 1.021 fold change to non-treatment | HBV DNA ([1]; 500 nM, replicate 2): 0.973 fold change to non-treatment | HBV DNA ([1]; 500 nM, replicate 3): 0.966 fold change to non-treatment | HBV DNA ([1]; 1000 nM, replicate 1): 1.000 fold change to non-treatment | HBV DNA ([1]; 1000 nM, replicate 2): 0.940 fold change to non-treatment | HBV DNA ([1]; 1000 nM, replicate 3): 0.940 fold change to non-treatment | inhibition of HBV DNA replication (in words) [1]: did not inhibit HBV DNA replication | proteolytic activation of caspase-3 (in words) [2]: induced significant proteolytic activation of caspase-3 | HBV DNA ([3]; replicate 1): 1.089 fold-change to control | HBV DNA ([3]; replicate 2): 1.052 fold-change to control | HBV DNA ([3]; replicate 3): 0.924 fold-change to control | HBeAg in culture medium ([3]; replicate 1): 1.047 fold-change to control | HBsAg in culture medium ([3]; replicate 1): 0.956 fold-change to control | Intracellular HBcAg ([3]; replicate 1): 0.979 fold-change to control | HBeAg in culture medium ([3]; replicate 2): 0.911 fold-change to control | HBsAg in culture medium ([3]; replicate 2): 0.938 fold-change to control | Intracellular HBcAg ([3]; replicate 2): 0.909 fold-change to control | HBeAg in culture medium ([3]; replicate 3): 0.937 fold-change to control | HBsAg in culture medium ([3]; replicate 3): 0.832 fold-change to control | Intracellular HBcAg ([3]; replicate 3): 0.921 fold-change to control | effect on HBV replication (in words) ([3]; HepG2.2.15): did not affect HBV replication | reported Bcl-xL inhibitor potency (in words) [4]: picomolar

CN(C)CC[C@H](CSc1ccccc1)Nc1ccc(S(=O)(=O)NC(=O)c2ccc(N3CCN(Cc4ccccc4-c4ccc(Cl)cc4)CC3)cc2)cc1[N+](=O)[O-] [ABT-737]
HBV DNA ([1]; 125 nM, replicate 1): 1.000 fold change to non-treatment | HBV DNA ([1]; 125 nM, replicate 2): 0.986 fold change to non-treatment | HBV DNA ([1]; 125 nM, replicate 3): 0.979 fold change to non-treatment | HBV DNA ([1]; 250 nM, replicate 1): 1.110 fold change to non-treatment | HBV DNA ([1]; 250 nM, replicate 2): 1.035 fold change to non-treatment | HBV DNA ([1]; 250 nM, replicate 3): 1.007 fold change to non-treatment | HBV DNA ([1]; 500 nM, replicate 1): 0.953 fold change to non-treatment | HBV DNA ([1]; 500 nM, replicate 2): 1.000 fold change to non-treatment | HBV DNA ([1]; 500 nM, replicate 3): 1.021 fold change to non-treatment | HBV DNA ([1]; 1000 nM, replicate 1): 0.993 fold change to non-treatment | HBV DNA ([1]; 1000 nM, replicate 2): 1.021 fold change to non-treatment | HBV DNA ([1]; 1000 nM, replicate 3): 1.021 fold change to non-treatment | inhibition of HBV DNA replication (in words) [1]: did not inhibit HBV DNA replication | proteolytic activation of caspase-3 (in words) [2]: induced significant proteolytic activation of caspase-3 | reported Bcl-xL inhibitor potency (in words) [4]: picomolar
